{
  "source": "patent US7348426B1",
  "about": "“Substituted bicyclic heterocycles, process for their preparation and their use as antiobesity and hypocholesterolemic agents” (Dr. Reddy's Laboraties Limited, priority 1999, dated 2008)",
  "key": {"[1]": {"tested_on": "cholesterol fed Syrian Hamsters", "conditions": "hamster, in vivo, po, 10 mg/kg/day"}, "[2]": {"tested_on": "hypercholesterolemic Sprague Dawley rats", "conditions": "rat, in vivo, po, 1 mg/kg"}, "C57BL/KsJ-db/db mice": {"tested_on": "C57BL/KsJ-db/db mice", "assay": "Blood sugar and triglyceride lowering in db/db mice (genetic model)", "format": "in vivo", "source_text": "Mutation in colonies of laboratory animals and different sensitivities to dietary regimens have made the development of animal models with non-insulin dependent diabetes and hyperlipidemia associated with obesity and insulin resistance possible. Genetic models such as db/db and ob/ob (Diabetes, (1982) 31(1): 1-6) mice and zucker fa/fa rats have been developed by the various laboratories for understanding the pathophysiology of disease and testing the efficacy of new antidiabetic compounds (Diabetes, (1983) 32: 830-838; Annu. Rep. Sankyo Res. Lab. (1994). 46: 1-57). The homozygous animals, C57 BL/KsJ-db/db mice developed by Jackson Laboratory, U.S., are obese, hyperglycemic, hyperinsulinemic and insulin resistant (J. Clin. Invest., (1990) 85: 962-967), whereas heterozygous are lean and normoglycemic. In db/db model, mouse progressively develops insulinopenia with age, a feature commonly observed in late stages of human type II diabetes when blood sugar levels are insufficiently controlled. The state of pancreas and its course vary according to the models. Since this model resembles that of type II diabetes mellitus, the compounds of the present invention were tested for blood sugar and triglycerides lowering activities. Male C57BL/KsJ-db/db mice of 8 to 14 weeks age, having body weight range of 35 to 60 grams, bred at Dr. Reddy's Research Foundation (DRF) animal house, were used in the experiment. The mice were provided with standard feed (National Institute of Nutrition (NIN), Hyderabad, India) and acidified water, ad libitum. The animals having more than 350 mg/dl blood sugar were used for testing. The number of animals in each group was 4. […] The control group received vehicle (dose 10 ml/kg). On 6th day the blood samples were collected one hour after administration of test compounds/vehicle for assessing the biological activity. The random blood sugar and triglyceride levels were measured by collecting blood (100 μl) through orbital sinus, using heparinised capillary in tubes containing EDTA which was centrifuged to obtain plasma. The plasma glucose and triglyceride levels were measured spectrometrically, by glucose oxidase and glycerol-3-PO4 oxidase/peroxidase enzyme (Dr. Reddy's Lab. Diagnostic Division Kits, Hyderabad, India) methods respectively. The blood sugar and triglycerides lowering activities of the test compound was calculated according to the formula. Formulae for Calculation: 1. Percent reduction in Blood sugar/triglycerides/total cholesterol were calculated according to the formula: [formula] OC=Zero day control group value OT=Zero day treated group value TC=Test day control group value TT=Test day treated group value 2. LDL and VLDL cholesterol levels were calculated according to the formula: […]"}, "[3]": {"tested_on": "Swiss albino mice and Guinea pigs", "assay": "Plasma triglyceride and total cholesterol lowering activity in Swiss albino mice and Guinea pigs", "format": "in vivo", "conditions": "3 mg/kg orally for 6 days; species of the table not stated (Swiss albino mice / Guinea pigs)", "description": "C) Plasma Triglyceride and Total Cholesterol Lowering Activity in Swiss Albino Mice and Guinea Pigs Male Swiss albino mice (SAM) and male Guinea pigs were obtained from NIN and housed in DRF animal house. All these animals were maintained under 12 hour light and dark cycle at 25±1° C. Animals were given standard laboratory chow (NIN, Hyderabad. India) and water, ad libitum. […] C. Effects of fenofibrate, gemfibrozil and nicotinic acid on plasma lipoprotein levels in normal and hyperlipidemic mice. Atherosclerosis. 1988, 70: 107-114). […] Control mice were treated with vehicle (0.25% Carboxymethylcellulose; dose 10 ml/kg). […] Control animals were treated with vehicle (0.25% Carboxymethylcellulose; dose 5 ml/kg). The blood samples were collected in fed state 1 hour after drug administration on 0 and 6 day of treatment. The blood was collected from the retro-orbital sinus through heparinised capillary in EDTA containing tubes. After centrifugation, plasma sample was separated for triglyceride and total cholesterol (Wieland, O. Methods of Enzymatic analysis. Bergermeyer, H. O., Ed., 1963. 211-214; Trinder, P. Ann. Clin. Biochem. 1969, 6: 24-27). […] Percent reduction in Blood sugar/triglycerides/total cholesterol were calculated according to the formula: [formula] […] LDL and VLDL cholesterol levels were calculated according to the formula: […]"}, "[4]": {"conditions": "10 mg/kg oral gavage daily for 6 days"}, "[5]": {"conditions": "3 mg/kg oral gavage daily for 6 days"}},
  "data": [
    {"smiles": "CCOC(Cc1ccc(OCCN2CCSc3ccccc32)cc1)C(=O)[O-].[Na+]", "note": "(racemic) [Example 30, (±) 3-[4-[2(2,3-Dihydro-1,4-benzothiazin-4-yl)ethoxy]phenyl]-2-ethoxypropanoic acid, sodium salt]", "values": [
      {"measurement": "Body weight Reduction (%)", "setting": "[1]", "result": 18, "unit": "%"}
    ]},
    {"smiles": "CCOC(Cc1ccc2cc(OCCN3CCSc4ccccc43)ccc2c1)C(=O)[O-].[Na+]", "note": "(racemic) [Example 44]", "values": [
      {"measurement": "HDL (%) ↑ increase", "setting": "[2]", "result": 46, "unit": "%"},
      {"measurement": "LDL (%) ↓ reduction", "setting": "[2]", "result": 44, "unit": "%"},
      {"measurement": "Total Cholesterol (%) ↓ reduction", "setting": "[2]", "result": 42, "unit": "%"},
      {"measurement": "Triglyceride (%) ↓ reduction", "setting": "[2]", "result": 50, "unit": "%"},
      {"measurement": "VLDL (%) ↓ reduction", "setting": "[2]", "result": 53, "unit": "%"},
      {"measurement": "Reduction in Blood Glucose Level (%)", "setting": "C57BL/KsJ-db/db mice; [4]", "result": 47, "unit": "%"},
      {"measurement": "Triglyceride Lowering (%)", "setting": "C57BL/KsJ-db/db mice; [4]", "result": 74, "unit": "%"}
    ]},
    {"smiles": "CCCCOC(Cc1ccc(OCCN2CCOc3ccccc32)cc1)C(=O)[O-].[Na+]", "note": "(racemic) [Example 50, (±) 3-[4-[2-(2,3-Dihydro-1,4-benzoxazin-4-yl)ethoxy]phenyl]-2-butoxypropanoic acid, sodium salt]", "values": [
      {"measurement": "Reduction in Blood Glucose Level (%)", "setting": "C57BL/KsJ-db/db mice; [5]", "result": 45, "unit": "%"},
      {"measurement": "Triglyceride Lowering (%)", "setting": "C57BL/KsJ-db/db mice; [5]", "result": 23, "unit": "%"}
    ]},
    {"smiles": "CCOC(Cc1ccc(OCC2CN(Cc3ccccc3)c3ccccc3O2)cc1)C(=O)[O-].[Na+]", "note": "(racemic) [Example 63, (±) 3-[4-(4-Benzyl-3,4-dihydro-1,4-benzoxazin-2-yl)methoxyphenyl]-2-ethoxy propanoic acid, sodium salt]", "values": [
      {"measurement": "Triglyceride Lowering (%)", "setting": "[3]", "result": 57, "unit": "%"}
    ]}
  ]
}
